Assay type in all cases: cell-based
One experiment deals with vanilloid receptor (VR1) (Homo sapiens (Human), UniProt Q8NER1). Kind of experiment: FLIPR Ca2+ influx assay on CHO-K1 cells transfected with the human VR1 gene, capsaicin stimulus (Pharmacological Method II). As for the experimental part: Furthermore, preference may be given to compounds of the invention of the general formulas I, Ia, Ib and Ic, which in the FLIPR assay using CHO—K1 cells, which have been transfected with the human VR1 gene in a concentration below 2000 nM, preferably below 1000 nM, more preferably below 300 nM, even more preferably below 100 nM, still more preferably below 75 nM, very preferably below 50 nM and most preferably below 10 nM, cause a 50 percent displacement of capsaicin present in a concentration of 100 nM. In the FLIPR assay, the Ca^2+ influx is quantified with the aid of a Ca^2+-sensitive dye (type Fluo-4, Molecular Probes Europe BV, Leiden, Netherlands) in a fluorescent imaging plate reader (FLIPR, Molecular Devices, Sunnyvale, USA), as described below.
Sequence of vanilloid receptor (VR1) (Q8NER1 whole entry): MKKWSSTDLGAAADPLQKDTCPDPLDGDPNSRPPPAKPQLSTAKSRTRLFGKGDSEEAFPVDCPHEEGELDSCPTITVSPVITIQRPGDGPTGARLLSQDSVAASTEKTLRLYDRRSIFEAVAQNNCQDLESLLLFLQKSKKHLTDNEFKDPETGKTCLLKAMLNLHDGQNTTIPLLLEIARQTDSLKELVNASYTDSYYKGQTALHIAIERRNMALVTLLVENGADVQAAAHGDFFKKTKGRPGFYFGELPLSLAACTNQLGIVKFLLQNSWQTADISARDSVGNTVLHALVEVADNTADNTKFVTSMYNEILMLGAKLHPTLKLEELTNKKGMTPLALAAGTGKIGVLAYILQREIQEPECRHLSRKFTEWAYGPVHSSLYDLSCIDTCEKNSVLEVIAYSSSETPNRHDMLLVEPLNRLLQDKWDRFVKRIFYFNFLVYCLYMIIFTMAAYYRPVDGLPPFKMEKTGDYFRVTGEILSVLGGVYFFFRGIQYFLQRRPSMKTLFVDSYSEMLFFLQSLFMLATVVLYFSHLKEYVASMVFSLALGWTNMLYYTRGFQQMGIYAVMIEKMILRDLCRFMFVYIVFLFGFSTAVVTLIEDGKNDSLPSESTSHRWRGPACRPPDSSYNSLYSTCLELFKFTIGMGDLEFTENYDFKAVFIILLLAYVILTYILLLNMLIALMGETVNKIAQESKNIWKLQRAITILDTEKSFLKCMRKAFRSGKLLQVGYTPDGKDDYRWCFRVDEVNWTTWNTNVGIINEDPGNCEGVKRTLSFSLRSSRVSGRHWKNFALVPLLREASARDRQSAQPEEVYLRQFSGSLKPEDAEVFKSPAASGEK
II. Functional Investigations on the Vanilloid Receptor (VR1)
The agonistic or antagonistic action of the substances to be examined on the vanilloid receptor (VR1) can alternatively be determined by the following assay. According to this assay the Ca^2+ influx through the canal is quantified with the aid of a Ca^2+-sensitive dye (type Fluo-4, Molecular Probes, Europe BV, Leiden, Netherlands) in a fluorescent imaging plate reader (FLIPR, Molecular Devices, Sunnyvale, USA).
Chinese hamster ovary cells (CHO—K1 cells, European Collection of Cell Cultures (ECACC) UK) are stably transfected with the VR1 gene. For carrying out functional investigations, these cells are plated on poly-D-lysine-coated, black 96-well plates with a clear bottom (BD Biosciences, Heidelberg, Germany) in a density of 25,000 cells/well. The cells are incubated overnight at 37° C. and 5% CO2 in a culture medium (Nutrient Mixture ‘am’s F12, 10% by volume of FCS (fetal calf serum), 18 μg/mL of L-proline). On the following day the cells are incubated with Fluo-4 (Fluo-4 2 μM, Pluronic F127 0.01 by volume, Molecular Probes in HBSS (Hank's buffered saline solution), Gibco Invitrogen GmbH, Karlsruhe, Germany) for 30 minutes at 37° C. The plates are then washed 3 times with HBSS buffer and, after another incubation over a period of 15 minutes at RT, are used in the FLIPR for Ca^2+ measurement. The Ca^2+-dependent fluorescence is measured prior to and following the addition of the substances being examined (wavelength λex=488 nm, λem=540 nm). Quantification is carried out by measuring the highest fluorescence intensity (PC, fluorescence counts) over time.
The FLIPR protocol consists of two substance additions. First of all, the substances to be tested (10 μM) are pipeted onto the cells and the Ca^2+ influx is compared with the control (capsaicin 10 μM) (percentage activation based on the Ca^2+ signal following addition of 10 μM of capsaicin). Following incubation over a period of 5 minutes 100 nM of capsaicin are applied and the influx of Ca^2+ is likewise determined.
Desensitizing agonists and antagonists lead to a suppression of the Ca^2+ influx. The percentage inhibition compared with the maximum inhibition achieved with 10 μM of capsaicin is calculated.
Based on the percentage displacement effected by different concentrations of the compounds of the general formula Ito be tested, IC50 inhibition concentrations that cause 50 percent displacement of capsaicin are calculated. Conversion using the Cheng Prusoff equation gave Ki values for the test substances (Cheng, Prusoff; Bioch. Pharmacol. 22, 3099-3108, 1973).
The affinity of the compounds of the invention for the vanilloid receptor 1 (VR1/TRPV1-Receptor) was detected as described above (Pharmacological Methods I and II respectively).

A further experiment has as its target VR1/TRPV1 receptor (Homo sapiens (Human), UniProt Q8NER1). The experiment is described as follows: Inhibition of human VR1/TRPV1 following pH-stimulus. The conditions noted are these: for inhibition at 1 µM / inhibition at 5 µM / inhibition at 10 µM: read-out: inhibition (in percent) following pH-stimulus (Human).
Experiment [1] has as its target vanilloid receptor 1 (VR1/TRPV1) (Rattus norvegicus (Rat), UniProt O35433). Kind of experiment: FLIPR Ca2+ influx assay on rat dorsal root ganglia cells, capsaicin stimulus (Pharmacological Method I). The text has this:
I. Functional Investigation on the Vanilloid Receptor 1 (VR1/TRPV1 Receptor)
The agonistic or antagonistic action of the substances to be investigated on the vanilloid receptor 1 (VR1/TRPV1) of the species rat can be determined using the following assay. According to this assay, the Ca^2+ influx through the receptor channel is quantified with the aid of a Ca^2+-sensitive dye (Type Fluo-4, Molecular Probes Europe BV, Leiden Netherlands) in a fluorescent imaging plate reader (FLIPR, Molecular Devices, Sunnyvale, USA).
Complete medium: 50 mL of HAMS F12 Nutrient Mixture (Gibco Invitrogen GmbH, Karlsruhe, Germany) with
10% by volume of FCS (fetal calf serum, Gibco Invitrogen GmbH, Karlsruhe, Germany, heat-inactivated);
2 mM of L-glutamine (Sigma, Munich, Germany);
1% by weight of AA solution (antibiotics/antimycotics solution, PAA, Pasching, Austria)
and 25 ng/mL of Medium NGF (2.5 S, Gibco Invitrogen GmbH, Karlsruhe, Germany) Cell culture plate: Poly-D-lysine-coated, black 96-well plates with a clear bottom (96-well black/clear plate, BD Biosciences, Heidelberg, Germany) are additionally coated with laminin (Gibco Invitrogen GmbH, Karlsruhe, Germany) by diluting laminin to a concentration of 100 μg/mL with PBS (Ca—Mg-free PBS, Gibco Invitrogen GmbH, Karlsruhe, Germany). Aliquots having a concentration of 100 μg/mL of laminin are taken and stored at −20° C. The aliquots are diluted with PBS in the ratio 1:10 to 10 μg/mL of laminin and in each case 50 μL of the solution is pipeted into a well of the cell culture plate. The cell culture plates are incubated at 37° C. for at least two hours, the supernatant solution is aspirated and the wells are in each case washed twice with PBS. The coated cell culture plates are stored with supernatant PBS and this is removed only directly before the addition of the cells.
Preparation of the Cells:
The vertebral column is removed from decapitated rats and this is laid directly in a cold, i.e. ice bath-surrounded, HBSS buffer (Hank's buffered saline solution, Gibco Invitrogen GmbH, Karlsruhe, Germany) and 1% by volume of an AA solution (antibiotics/antimycotics solution, PAA, Pasching, Austria) is added. The vertebral column is cut in two, longitudinally, and the vertebral canal is removed together with fascias. Subsequently, the dorsal root ganglia (DRGs) are removed and in turn stored in cold HBSS buffer to which 1% by volume of an AA solution has been added. The DRGs completely freed from blood residues and spinal nerves are in each case transferred to 500 μL of cold collagenase Type 2 (PAA, Pasching, Austria) and incubated at 37° C. for 35 minutes. After the addition of 2.5% by volume of trypsin (PAA, Pasching, Austria), the preparation is incubated at 37° C. for a further 10 minutes. On completion of incubation, the enzyme solution is carefully pipeted off and 500 μL of complete medium are added to the DRGs in each case. The DRGs are in each case repeatedly suspended, drawn through No. 1, No. 12, and No. 16 needles by means of a syringe and transferred to 50 mL Falcon tubes and these are filled to 15 mL with complete medium. The contents of each Falcon tube are in each case filtered through a 70 μm Falcon filter insert and centrifuged at 1200 rpm and RT for 10 minutes. The resulting pellet is in each case taken up in 250 μL of complete medium and the cell count is determined.
The number of cells in the suspension is adjusted to 3×10^5 per mL and in each case 150 μL of this suspension are added to a well of the cell culture plates coated as described above. The plates are allowed to stand at 37° C., 5% by volume of CO2 and 95% relative humidity for two to three days in an incubator. […]

Where [2] appears, read: ne = no effect, no reaction observed.

Structures are written as SMILES.

Sequence of vanilloid receptor 1 (VR1/TRPV1) (O35433 whole entry): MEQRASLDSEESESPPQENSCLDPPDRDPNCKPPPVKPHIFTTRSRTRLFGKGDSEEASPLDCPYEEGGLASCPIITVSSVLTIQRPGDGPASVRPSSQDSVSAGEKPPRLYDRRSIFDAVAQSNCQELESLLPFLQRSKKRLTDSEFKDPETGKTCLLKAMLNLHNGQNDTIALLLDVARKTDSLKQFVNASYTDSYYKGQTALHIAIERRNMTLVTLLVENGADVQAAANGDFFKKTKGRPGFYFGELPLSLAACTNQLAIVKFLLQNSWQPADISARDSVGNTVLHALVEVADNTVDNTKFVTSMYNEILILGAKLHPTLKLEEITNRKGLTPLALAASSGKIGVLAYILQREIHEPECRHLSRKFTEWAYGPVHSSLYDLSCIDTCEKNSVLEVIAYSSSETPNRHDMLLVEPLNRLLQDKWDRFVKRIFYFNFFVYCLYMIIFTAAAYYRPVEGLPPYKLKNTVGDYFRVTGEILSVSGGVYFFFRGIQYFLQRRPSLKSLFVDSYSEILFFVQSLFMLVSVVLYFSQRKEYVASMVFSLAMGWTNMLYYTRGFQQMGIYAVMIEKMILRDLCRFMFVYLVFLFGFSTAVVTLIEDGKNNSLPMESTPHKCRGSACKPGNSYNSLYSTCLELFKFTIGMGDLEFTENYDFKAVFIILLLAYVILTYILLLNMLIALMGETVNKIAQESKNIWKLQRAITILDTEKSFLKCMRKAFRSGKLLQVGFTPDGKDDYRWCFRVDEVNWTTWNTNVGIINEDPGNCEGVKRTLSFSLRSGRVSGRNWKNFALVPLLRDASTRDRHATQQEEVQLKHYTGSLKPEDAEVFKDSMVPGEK
Sequence of VR1/TRPV1 receptor (Q8NER1 whole entry): as the sequence (Q8NER1 whole entry) above

As for `CC1CCN(c2nc(C(F)(F)F)ccc2CNC(=O)C(C)c2cc(Br)c(O)c(Br)c2)CC1` (stereo not drawn) [Example 19, 2-(3,5-Dibromo-4-hydroxyphenyl)-N-(4-methyl-6′-trifluoromethyl-3,4,5,6-tetra-hydro-2H-[1,2′]bipyridinyl-3′-ylmethyl)propionamide], the Ki at vanilloid receptor (VR1) stood at 1.1 nM. On VR1/TRPV1 receptor, the inhibition at 1 µM came out at 0%, the inhibition at 5 µM came to 20% and the inhibition at 10 µM was determined as 31%.
For `CC1CCN(c2nc(C(F)(F)F)ccc2CNC(=O)Cc2cccc(F)c2)CC1` [Example 4, 2-(3-Fluorophenyl)-N-(4-methyl-6′-trifluoromethyl-3,4,5,6-tetrahydro-2H-[1,2′]bipyridinyl-3′-ylmethyl)acetamide], the values for the Ki (in experiment [1]; at vanilloid receptor (VR1)) were 80 nM and 34 nM, respectively. For the same compound, on VR1/TRPV1 receptor (setting [2]), the “IC50 (Human) following pH-stimulus” value is on record as “ne”.
As to `CC(=O)Nc1ccc(C(C)C(=O)NCc2ccc(C(F)(F)F)nc2N2CCC(C)CC2)cc1F` (stereo not drawn) [Example 18, 2-(4-Acetamido-3-fluorophenyl)-N-((2-(4-methylpiperidin-1-yl)-6-(trifluoromethyl)pyridin-3-yl)methyl)propanamide], the Ki at vanilloid receptor (VR1) was 25 nM. Besides, the “IC50 (Human) following pH-stimulus” value against VR1/TRPV1 receptor (setting [2]) is recorded as “ne”.
`CC1CCN(c2nc(C(F)(F)F)ccc2CNC(=O)Cc2cc(Br)cc(Br)c2)CC1` [Example 2, 2-(3,5-Dibromophenyl)-N-((2-(4-methylpiperidin-1-yl)-6-(trifluoromethyl)pyridin-3-yl)methyl)acetamide]: the Ki was 60.1 nM in experiment [1] and 40.6 nM at vanilloid receptor (VR1). The “IC50 (Human) following pH-stimulus” value against VR1/TRPV1 receptor (setting [2]) was “ne”.
`CC1CCN(c2nc(C(F)(F)F)ccc2CNC(=O)C(C)c2cc(O)c([N+](=O)[O-])c(F)c2)CC1` (stereo not drawn) [Example 27, 2-(3-Fluoro-5-hydroxy-4-nitrophenyl)-N-((2-(4-methylpiperidin-1-yl)-6-(trifluoromethyl)pyridin-3-yl)methyl)propanamide] registered a Ki in experiment [1] of 7.7 nM. On vanilloid receptor (VR1), this compound registered a Ki of 7.9 nM. Moreover, on VR1/TRPV1 receptor, the inhibition at 1 µM came to 7%, the inhibition at 5 µM is 35% and the inhibition at 10 µM is 49%.
Take `COc1cc(CC(=O)NCc2ccc(C(F)(F)F)nc2N2CCC(C)CC2)cc(Br)c1O` [Example 21, 2-(3-Bromo-4-hydroxy-5-methoxyphenyl)-N-(4-methyl-6′-trifluoromethyl-3,4,5,6-tetrahydro-2H-[1,2′]bipyridinyl-3′-ylmethyl)acetamide]: affinity on vanilloid receptor (VR1) was put at a Ki of 0.1 nM. On VR1/TRPV1 receptor, the inhibition at 5 µM was 4% and the inhibition at 10 µM was found to be 38%.
`CC1CCN(c2nc(C(F)(F)F)ccc2CNC(=O)Cc2cc(Br)c(N)c(Br)c2)CC1` [Example 22, 2-(4-Amino-3,5-dibromophenyl)-N-(4-methyl-6′-trifluoromethyl-3,4,5,6-tetra-hydro-2H-[1,2′]bipyridinyl-3′-ylmethyl)acetamide]: affinity on vanilloid receptor (VR1) was put at a Ki of 0.7 nM. Moreover, inhibition on VR1/TRPV1 receptor (setting [2]) was half-maximal at 158 nM (IC50).
On to `CC1CCN(c2nc(C(F)(F)F)ccc2CNC(=O)Cc2cc(F)ccc2F)CC1` [Example 7, 2-(2,5-Difluorophenyl)-N-(4-methyl-6′-trifluoromethyl-3,4,5,6-tetrahydro-2H-[1,2′]bipyridinyl-3′-ylmethyl)acetamide], for which the values for the Ki (in experiment [1]; on vanilloid receptor (VR1)) were 63 nM and 30 nM, respectively. In addition, the “IC50 (Human) following pH-stimulus” value at VR1/TRPV1 receptor (setting [2]) is on record as “ne”.
For `CC1CCN(c2nc(C(F)(F)F)ccc2CNC(=O)C(C)c2cc(F)cc(F)c2)CC1` (stereo not drawn) [Example 10, 2-(3,5-Difluorophenyl)-N-(4-methyl-6′-trifluoromethyl-3,4,5,6-tetrahydro-2H-[1,2′]bipyridinyl-3′-ylmethyl)propionamide], the Ki on vanilloid receptor (VR1) was 24.7 nM. Further, the “IC50 (Human) following pH-stimulus” value on VR1/TRPV1 receptor (setting [2]) is listed as “ne”.
As to `CC1CCN(c2nc(C(F)(F)F)ccc2CNC(=O)C(C)c2cc(Br)c(N)c(Br)c2)CC1` (stereo not drawn) [Example 20, 2-(4-Amino-3,5-dibromophenyl)-N-(4-methyl-6′-trifluoromethyl-3,4,5,6-tetra-hydro-2H-[1,2′]bipyridinyl-3′-ylmethyl)propionamide], the affinity at vanilloid receptor (VR1) corresponds to a Ki of 0.9 nM. Moreover, on VR1/TRPV1 receptor, the inhibition at 1 µM stood at 0%, the inhibition at 5 µM was determined as 10% and the inhibition at 10 µM stood at 27%.
Turning to `CC1CCN(c2nc(C(F)(F)F)ccc2CNC(=O)Cc2cc(Br)c(O)c(Br)c2)CC1` [Example 23, 2-(3,5-Dibromo-4-hydroxyphenyl)-N-(4-methyl-6′-trifluoromethyl-3,4,5,6-tetra-hydro-2H-[1,2′]bipyridinyl-3′-ylmethyl)acetamide], the Ki at vanilloid receptor (VR1) turned out to be 0.3 nM. Besides, on VR1/TRPV1 receptor, the inhibition at 5 µM was 8% and the inhibition at 10 µM came out at 35%.
Regarding `C=CC(=O)Nc1c(F)cc(C(C)C(=O)NCc2ccc(C(F)(F)F)nc2N2CCC(C)CC2)cc1I` (stereo not drawn) [Example 34, N-(2-Fluoro-6-iodo-4-(1-((2-(4-methylpiperidin-1-yl)-6-(trifluoromethyl)pyridin-3-yl)methylamino)-1-oxopropan-2-yl)phenyl)acrylamide], the affinity on vanilloid receptor (VR1), expressed as Ki, was 4.8 nM. Moreover, the “IC50 (Human) following pH-stimulus” value at VR1/TRPV1 receptor (setting [2]) is “ne”.

The term Ki denotes the dissociation constant of the complex between target and ligand, obtained from inhibition or displacement. What is called inhibition is the share of the control response that was lost under treatment. Usually IC50 stands for the concentration that gives 50% inhibition. Read a high IC50 as weaker potency.

Source of the values: US8791268B2, “Vanilloid receptor ligands, pharmaceutical compositions containing them, process for making them, and use thereof for treating pain and other conditions” (Gruenenthal GmbH, priority 2007, dated 2014).
